Data reported in patent US20260183295A1, “METHODS AND COMPOSITIONS FOR TREATING CANCER” (Onconova Therapeutics, Inc., priority 2022, published 2026).

Columns and labels:
Format in all cases: cell-based
AGRN = molecular target: T1, AGRN (Homo sapiens, UniProt O00468); test: CETSA-MS, MDA-MB-231 intact cells; conditions: 2 μM and 20 μM
T1 construct: endogenous in cells; host or cells: MDA-MB-231
In short: (§1)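 Intact MDA-MB-231 cells were incubated with compound, pelleted, washed and heated across a thermal gradient. After freeze-lysis, sonication and centrifugation, soluble protein was acetone-precipitated, digested, labeled and quantified by mass spectrometry proteomics to track thermal stabilization.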

APLP2 = molecular target: T2, APLP2 (Homo sapiens, UniProt Q06481); test: CETSA-MS, MDA-MB-231 intact cells; conditions: 2 μM and 20 μM
T2 construct: endogenous in cells; host or cells: MDA-MB-231
In short: as §1

AXL = molecular target: T3, AXL (Homo sapiens, UniProt P30530); test: CETSA-MS, MDA-MB-231 intact cells; conditions: 2 μM and 20 μM
T3 construct: endogenous in cells; host or cells: MDA-MB-231
In short: as §1

CAVIN3 = molecular target: T4, CAVIN3 (Homo sapiens, UniProt Q969G5); test: CETSA-MS, MDA-MB-231 intact cells; conditions: 2 μM and 20 μM
T4 construct: endogenous in cells; host or cells: MDA-MB-231
In short: as §1

CDK12 = molecular target: T5, CDK12 (Homo sapiens, UniProt Q9NYV4); test: CETSA-MS, MDA-MB-231 intact cells; conditions: 2 μM and 20 μM
T5 construct: endogenous in cells; host or cells: MDA-MB-231
T5 sequence (Q9NYV4 whole entry): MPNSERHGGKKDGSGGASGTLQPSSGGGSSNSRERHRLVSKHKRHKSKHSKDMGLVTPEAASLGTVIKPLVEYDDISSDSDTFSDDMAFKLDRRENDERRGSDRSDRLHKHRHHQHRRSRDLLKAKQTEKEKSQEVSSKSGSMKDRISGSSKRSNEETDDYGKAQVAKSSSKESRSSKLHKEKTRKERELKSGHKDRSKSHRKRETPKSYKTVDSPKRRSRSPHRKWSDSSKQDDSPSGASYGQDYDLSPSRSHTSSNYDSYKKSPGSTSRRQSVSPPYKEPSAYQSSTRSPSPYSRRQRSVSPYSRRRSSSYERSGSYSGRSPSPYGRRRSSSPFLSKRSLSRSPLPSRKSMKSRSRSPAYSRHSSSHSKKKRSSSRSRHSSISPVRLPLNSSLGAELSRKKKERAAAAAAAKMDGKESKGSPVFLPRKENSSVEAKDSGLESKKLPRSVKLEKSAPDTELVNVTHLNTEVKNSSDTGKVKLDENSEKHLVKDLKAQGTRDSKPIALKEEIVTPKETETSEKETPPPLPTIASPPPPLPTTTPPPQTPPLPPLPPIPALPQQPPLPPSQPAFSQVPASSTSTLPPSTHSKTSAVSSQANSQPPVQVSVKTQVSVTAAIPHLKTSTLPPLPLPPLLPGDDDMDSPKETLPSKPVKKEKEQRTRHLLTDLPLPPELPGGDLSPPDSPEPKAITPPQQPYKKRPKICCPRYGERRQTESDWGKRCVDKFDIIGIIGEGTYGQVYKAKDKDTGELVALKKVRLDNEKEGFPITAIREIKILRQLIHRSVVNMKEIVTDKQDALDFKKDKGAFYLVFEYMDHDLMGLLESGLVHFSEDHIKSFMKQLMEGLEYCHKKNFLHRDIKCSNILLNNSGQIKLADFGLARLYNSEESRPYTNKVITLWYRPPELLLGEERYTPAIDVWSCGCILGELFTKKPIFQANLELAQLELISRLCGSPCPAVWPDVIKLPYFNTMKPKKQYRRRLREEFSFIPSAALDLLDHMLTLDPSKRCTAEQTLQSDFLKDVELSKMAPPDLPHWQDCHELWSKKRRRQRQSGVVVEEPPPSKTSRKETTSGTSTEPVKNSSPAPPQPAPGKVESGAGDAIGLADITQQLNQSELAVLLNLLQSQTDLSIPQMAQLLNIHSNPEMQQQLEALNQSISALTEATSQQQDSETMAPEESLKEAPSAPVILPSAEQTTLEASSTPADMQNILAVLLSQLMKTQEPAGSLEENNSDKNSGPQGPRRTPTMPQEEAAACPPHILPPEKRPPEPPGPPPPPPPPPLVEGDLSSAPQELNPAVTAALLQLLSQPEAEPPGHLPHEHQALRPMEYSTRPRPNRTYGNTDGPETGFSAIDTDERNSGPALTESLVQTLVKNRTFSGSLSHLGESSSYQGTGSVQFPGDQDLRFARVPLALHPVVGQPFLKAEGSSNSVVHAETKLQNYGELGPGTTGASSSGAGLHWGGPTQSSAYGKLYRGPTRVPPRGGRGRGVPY
T5 sequence (O75909 whole entry partner): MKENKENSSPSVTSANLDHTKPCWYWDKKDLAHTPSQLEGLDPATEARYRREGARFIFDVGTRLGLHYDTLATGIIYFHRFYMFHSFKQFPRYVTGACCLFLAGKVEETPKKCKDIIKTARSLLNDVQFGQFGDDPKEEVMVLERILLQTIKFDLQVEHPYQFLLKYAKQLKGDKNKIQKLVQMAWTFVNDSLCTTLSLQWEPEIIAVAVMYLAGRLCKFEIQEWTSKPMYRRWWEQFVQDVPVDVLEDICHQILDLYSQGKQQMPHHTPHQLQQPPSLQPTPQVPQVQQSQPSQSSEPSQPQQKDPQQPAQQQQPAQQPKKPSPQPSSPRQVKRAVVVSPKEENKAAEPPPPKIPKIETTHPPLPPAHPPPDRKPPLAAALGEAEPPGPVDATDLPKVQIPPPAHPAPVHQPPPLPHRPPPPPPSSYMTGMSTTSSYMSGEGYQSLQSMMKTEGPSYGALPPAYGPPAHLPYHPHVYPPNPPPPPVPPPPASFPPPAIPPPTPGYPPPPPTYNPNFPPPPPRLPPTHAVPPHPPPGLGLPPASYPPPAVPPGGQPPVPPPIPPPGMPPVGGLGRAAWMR
In short: as §1

COG8 = molecular target: T6, COG8 (Homo sapiens, UniProt Q96MW5); test: CETSA-MS, MDA-MB-231 intact cells; conditions: 2 μM and 20 μM
T6 construct: endogenous in cells; host or cells: MDA-MB-231
In short: as §1

COL2A1 = molecular target: T7, COL2A1 (Homo sapiens, UniProt P02458); test: CETSA-MS, MDA-MB-231 intact cells; conditions: 2 μM and 20 μM
T7 construct: endogenous in cells; host or cells: MDA-MB-231
In short: as §1

CSNK2A2 = molecular target: T8, CSNK2A2 (Homo sapiens, UniProt P19784); test: CETSA-MS, MDA-MB-231 intact cells; conditions: 2 μM and 20 μM
T8 construct: 148 targets unique to Compound 1 in MDA-MB-231 intact cells; endogenous in cells; host or cells: MDA-MB-231
In short: as §1

ECE1 = molecular target: T9, ECE1 (Homo sapiens, UniProt P42892); test: CETSA-MS, MDA-MB-231 intact cells; conditions: 2 μM and 20 μM
T9 construct: 148 targets unique to Compound 1 in MDA-MB-231 intact cells; endogenous in cells; host or cells: MDA-MB-231
In short: as §1

EIF4G1 = molecular target: T10, EIF4G1 (Homo sapiens, UniProt Q04637); test: CETSA-MS, MDA-MB-231 intact cells; conditions: 2 μM and 20 μM
T10 construct: endogenous in cells; host or cells: MDA-MB-231
In short: as §1

ELAVL1 = molecular target: T11, ELAVL1 (Homo sapiens, UniProt Q15717); test: CETSA-MS, MDA-MB-231 intact cells; conditions: 2 μM and 20 μM
T11 construct: 148 targets unique to Compound 1 in MDA-MB-231 intact cells; endogenous in cells; host or cells: MDA-MB-231
In short: as §1

FBRS = test: CETSA-MS, MDA-MB-231 intact cells; conditions: 2 μM and 20 μM
In short: as §1

FOS = molecular target: T12, FOS (Homo sapiens, UniProt P01100); test: CETSA-MS, MDA-MB-231 intact cells; conditions: 2 μM and 20 μM
T12 construct: endogenous in cells; host or cells: MDA-MB-231
In short: as §1

FOXK1 = molecular target: T13, FOXK1 (Homo sapiens, UniProt P85037); test: CETSA-MS, MDA-MB-231 intact cells; conditions: 2 μM and 20 μM
T13 construct: endogenous in cells; host or cells: MDA-MB-231
In short: as §1

FUBP3 = molecular target: T14, FUBP3 (Homo sapiens, UniProt Q96I24); test: CETSA-MS, MDA-MB-231 intact cells; conditions: 2 μM and 20 μM
T14 construct: 148 targets unique to Compound 1 in MDA-MB-231 intact cells; endogenous in cells; host or cells: MDA-MB-231
In short: as §1

GALNT7 = molecular target: T15, GALNT7 (Homo sapiens, UniProt Q86SF2); test: CETSA-MS, MDA-MB-231 intact cells; conditions: 2 μM and 20 μM
T15 construct: 148 targets unique to Compound 1 in MDA-MB-231 intact cells; endogenous in cells; host or cells: MDA-MB-231
In short: as §1

HNRNPA0 = molecular target: T16, HNRNPA0 (Homo sapiens, UniProt Q13151); test: CETSA-MS, MDA-MB-231 intact cells; conditions: 2 μM and 20 μM
T16 construct: 148 targets unique to Compound 1 in MDA-MB-231 intact cells; endogenous in cells; host or cells: MDA-MB-231
T16 sequence (Q13151 whole entry): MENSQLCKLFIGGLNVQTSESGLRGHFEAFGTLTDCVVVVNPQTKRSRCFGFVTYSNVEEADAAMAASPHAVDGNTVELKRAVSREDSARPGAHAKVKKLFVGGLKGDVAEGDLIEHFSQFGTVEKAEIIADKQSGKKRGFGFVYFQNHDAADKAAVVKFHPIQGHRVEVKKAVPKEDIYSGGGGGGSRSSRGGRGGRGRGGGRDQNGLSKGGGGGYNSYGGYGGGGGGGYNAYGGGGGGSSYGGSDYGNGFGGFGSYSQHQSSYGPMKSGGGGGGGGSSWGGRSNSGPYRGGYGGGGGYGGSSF
In short: as §1

HNRNPL = molecular target: T17, HNRNPL (Homo sapiens, UniProt P14866); test: CETSA-MS, MDA-MB-231 intact cells; conditions: 2 μM and 20 μM
T17 construct: endogenous in cells; host or cells: MDA-MB-231
In short: as §1

HNRNPR = molecular target: T18, HNRNPR (Homo sapiens, UniProt O43390); test: CETSA-MS, MDA-MB-231 intact cells; conditions: 2 μM and 20 μM
T18 construct: endogenous in cells; host or cells: MDA-MB-231
T18 sequence (O43390 whole entry): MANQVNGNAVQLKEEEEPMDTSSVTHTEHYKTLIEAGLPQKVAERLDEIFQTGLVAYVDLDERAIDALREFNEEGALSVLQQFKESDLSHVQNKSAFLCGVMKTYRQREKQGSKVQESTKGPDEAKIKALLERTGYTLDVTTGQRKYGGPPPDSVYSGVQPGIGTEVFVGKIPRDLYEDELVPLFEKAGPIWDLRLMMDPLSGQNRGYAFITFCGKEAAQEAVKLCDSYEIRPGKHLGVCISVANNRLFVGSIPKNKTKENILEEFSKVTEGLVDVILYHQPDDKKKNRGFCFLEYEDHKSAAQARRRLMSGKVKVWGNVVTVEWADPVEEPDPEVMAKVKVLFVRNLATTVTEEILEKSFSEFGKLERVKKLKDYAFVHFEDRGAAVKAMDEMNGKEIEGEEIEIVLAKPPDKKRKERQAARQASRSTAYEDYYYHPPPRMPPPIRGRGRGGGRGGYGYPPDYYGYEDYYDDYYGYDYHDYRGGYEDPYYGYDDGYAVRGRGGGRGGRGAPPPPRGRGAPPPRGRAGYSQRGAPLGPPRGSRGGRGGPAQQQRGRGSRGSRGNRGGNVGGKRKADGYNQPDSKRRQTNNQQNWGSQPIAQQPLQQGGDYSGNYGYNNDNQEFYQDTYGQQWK
In short: as §1

LAMTOR2 = molecular target: T19, LAMTOR2 (Homo sapiens, UniProt Q9Y2Q5); test: CETSA-MS, MDA-MB-231 intact cells; conditions: 2 μM and 20 μM
T19 construct: endogenous in cells; host or cells: MDA-MB-231
T19 sequence (Q9Y2Q5 whole entry): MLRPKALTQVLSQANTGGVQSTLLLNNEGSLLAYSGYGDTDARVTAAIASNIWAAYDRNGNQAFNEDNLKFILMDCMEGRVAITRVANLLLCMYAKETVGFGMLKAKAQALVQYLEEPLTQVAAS
In short: as §1

LRPPRC = molecular target: T20, LRPPRC (Homo sapiens, UniProt P42704); test: CETSA-MS, MDA-MB-231 intact cells; conditions: 2 μM and 20 μM
T20 construct: endogenous in cells; host or cells: MDA-MB-231
In short: as §1

LYPLA2 = molecular target: T21, LYPLA2 (Homo sapiens, UniProt O95372); test: CETSA-MS, MDA-MB-231 intact cells; conditions: 2 μM and 20 μM
T21 construct: endogenous in cells; host or cells: MDA-MB-231
In short: as §1

MAN2A1 = molecular target: T22, MAN2A1 (Homo sapiens, UniProt Q16706); test: CETSA-MS, MDA-MB-231 intact cells; conditions: 2 μM and 20 μM
T22 construct: endogenous in cells; host or cells: MDA-MB-231
In short: as §1

MAP3K20 = molecular target: T23, MAP3K20 (Homo sapiens, UniProt Q9NYL2); test: CETSA-MS, MDA-MB-231 intact cells; conditions: 2 μM and 20 μM
T23 construct: endogenous in cells; host or cells: MDA-MB-231
In short: as §1

MICALL2 = molecular target: T24, MICALL2 (Homo sapiens, UniProt Q8IY33); test: CETSA-MS, MDA-MB-231 intact cells; conditions: 2 μM and 20 μM
T24 construct: endogenous in cells; host or cells: MDA-MB-231
In short: as §1

PIP4K2B = molecular target: T25, PIP4K2B (Homo sapiens, UniProt P78356); test: CETSA-MS, MDA-MB-231 intact cells; conditions: 2 μM and 20 μM
T25 construct: endogenous in cells; host or cells: MDA-MB-231
T25 sequence (P78356 whole entry): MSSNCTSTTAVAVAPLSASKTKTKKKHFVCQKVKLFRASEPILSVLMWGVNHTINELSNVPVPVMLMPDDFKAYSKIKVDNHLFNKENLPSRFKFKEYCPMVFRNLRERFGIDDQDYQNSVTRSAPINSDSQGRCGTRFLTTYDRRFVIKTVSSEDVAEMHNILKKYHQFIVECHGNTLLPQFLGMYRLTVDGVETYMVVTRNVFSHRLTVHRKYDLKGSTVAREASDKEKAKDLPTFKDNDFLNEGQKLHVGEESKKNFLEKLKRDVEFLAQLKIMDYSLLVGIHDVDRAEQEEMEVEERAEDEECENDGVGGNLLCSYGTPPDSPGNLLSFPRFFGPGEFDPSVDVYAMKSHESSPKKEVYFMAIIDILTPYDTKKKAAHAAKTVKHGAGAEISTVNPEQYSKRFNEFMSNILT
In short: as §1

RBM34 = molecular target: T26, RBM34 (Homo sapiens, UniProt P42696); test: CETSA-MS, MDA-MB-231 intact cells; conditions: 2 μM and 20 μM
T26 construct: endogenous in cells; host or cells: MDA-MB-231
T26 sequence (P42696 whole entry): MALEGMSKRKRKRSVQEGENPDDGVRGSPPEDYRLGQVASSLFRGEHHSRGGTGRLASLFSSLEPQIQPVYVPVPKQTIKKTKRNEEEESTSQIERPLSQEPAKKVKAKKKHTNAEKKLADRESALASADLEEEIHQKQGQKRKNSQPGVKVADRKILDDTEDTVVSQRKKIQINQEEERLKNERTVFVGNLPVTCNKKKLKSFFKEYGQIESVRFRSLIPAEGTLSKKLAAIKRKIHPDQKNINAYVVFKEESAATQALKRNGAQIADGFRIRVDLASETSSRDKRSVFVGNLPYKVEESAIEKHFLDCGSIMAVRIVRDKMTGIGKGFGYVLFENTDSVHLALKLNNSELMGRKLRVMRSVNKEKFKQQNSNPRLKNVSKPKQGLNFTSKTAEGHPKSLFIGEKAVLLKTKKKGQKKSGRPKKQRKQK
In short: as §1

SCAF1 = molecular target: T27, SCAF1 (Homo sapiens, UniProt Q9H7N4); test: CETSA-MS, MDA-MB-231 intact cells; conditions: 2 μM and 20 μM
T27 construct: endogenous in cells; host or cells: MDA-MB-231
In short: as §1

SHCBP1 = molecular target: T28, SHCBP1 (Homo sapiens, UniProt Q8NEM2); test: CETSA-MS, MDA-MB-231 intact cells; conditions: 2 μM and 20 μM
T28 construct: endogenous in cells; host or cells: MDA-MB-231
In short: as §1

SNX6 = molecular target: T29, SNX6 (Homo sapiens, UniProt Q9UNH7); test: CETSA-MS, MDA-MB-231 intact cells; conditions: 2 μM and 20 μM
T29 construct: endogenous in cells; host or cells: MDA-MB-231
In short: as §1

STK10 = molecular target: T30, STK10 (Homo sapiens, UniProt O94804); test: CETSA-MS, MDA-MB-231 intact cells; conditions: 2 μM and 20 μM
T30 construct: endogenous in cells; host or cells: MDA-MB-231
T30 sequence (O94804 whole entry): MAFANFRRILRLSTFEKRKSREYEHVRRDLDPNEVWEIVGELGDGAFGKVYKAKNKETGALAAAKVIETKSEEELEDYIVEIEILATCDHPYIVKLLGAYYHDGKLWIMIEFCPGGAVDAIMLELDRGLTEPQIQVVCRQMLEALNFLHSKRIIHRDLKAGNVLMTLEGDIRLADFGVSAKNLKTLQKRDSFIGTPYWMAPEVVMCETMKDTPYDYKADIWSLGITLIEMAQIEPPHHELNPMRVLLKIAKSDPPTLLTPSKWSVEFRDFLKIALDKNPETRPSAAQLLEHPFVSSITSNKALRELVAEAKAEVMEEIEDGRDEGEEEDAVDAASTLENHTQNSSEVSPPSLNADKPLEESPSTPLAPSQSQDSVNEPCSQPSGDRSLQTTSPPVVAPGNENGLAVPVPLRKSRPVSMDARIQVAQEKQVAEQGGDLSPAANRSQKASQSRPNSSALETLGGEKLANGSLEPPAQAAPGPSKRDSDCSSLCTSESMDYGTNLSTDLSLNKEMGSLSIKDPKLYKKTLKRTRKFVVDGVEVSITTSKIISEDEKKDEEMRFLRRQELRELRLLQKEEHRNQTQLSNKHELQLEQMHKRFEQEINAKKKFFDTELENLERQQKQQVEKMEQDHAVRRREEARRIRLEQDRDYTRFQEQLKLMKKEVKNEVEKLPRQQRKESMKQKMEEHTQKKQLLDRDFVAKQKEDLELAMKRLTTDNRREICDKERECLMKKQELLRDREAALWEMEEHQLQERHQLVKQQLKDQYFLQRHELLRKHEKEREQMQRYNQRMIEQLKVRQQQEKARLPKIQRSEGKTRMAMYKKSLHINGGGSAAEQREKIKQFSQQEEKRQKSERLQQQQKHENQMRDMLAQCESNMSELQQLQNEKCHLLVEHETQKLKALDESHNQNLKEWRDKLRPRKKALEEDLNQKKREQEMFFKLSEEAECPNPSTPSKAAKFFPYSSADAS
In short: as §1

STK3 = molecular target: T31, STK3 (Homo sapiens, UniProt Q13188); test: CETSA-MS, MDA-MB-231 intact cells; conditions: 2 μM and 20 μM
T31 construct: endogenous in cells; host or cells: MDA-MB-231
In short: as §1

Akt pSer473 = test: Western blot, MDA-MB-231 cells, 24 hours; conditions: 2.5, 5, 10 μM, versus Comparator 1, 2 and 4

CN1CCN(c2ccc(Nc3ncc4cc(C#N)c(=O)n(C5CCCC5)c4n3)cc2)CC1 [Compound 1, 8-cyclopentyl-2-((4-(4-methylpiperazin-1-yl)phenyl)amino)-7-oxo-7,8-dihydropyrido[2,3-d]pyrimidine-6-carbonitrile]
Group (CETSA-MS thermal shift) (AGRN): Stabilization
Group (CETSA-MS thermal shift) (APLP2): Stabilization
Group (CETSA-MS thermal shift) (AXL): Stabilization
Group (CETSA-MS thermal shift) (CAVIN3): Stabilization
Group (CETSA-MS thermal shift) (CDK12): Destabilization
Group (CETSA-MS thermal shift) (COG8): Destabilization
Group (CETSA-MS thermal shift) (COL2A1): Stabilization
Group (CETSA-MS thermal shift) (CSNK2A2): Stabilization
Group (CETSA-MS thermal shift) (ECE1): Stabilization
Group (CETSA-MS thermal shift) (EIF4G1): Destabilization
Group (CETSA-MS thermal shift) (ELAVL1): Stabilization
Group (CETSA-MS thermal shift) (FBRS): Stabilization
Group (CETSA-MS thermal shift) (FOS): Destabilization
Group (CETSA-MS thermal shift) (FOXK1): Destabilization
Group (CETSA-MS thermal shift) (FUBP3): Stabilization
Group (CETSA-MS thermal shift) (GALNT7): Stabilization
Group (CETSA-MS thermal shift) (HNRNPA0): Stabilization
Group (CETSA-MS thermal shift) (HNRNPL): Stabilization
Group (CETSA-MS thermal shift) (HNRNPR): Stabilization
Group (CETSA-MS thermal shift) (LAMTOR2): Stabilization
Group (CETSA-MS thermal shift) (LRPPRC): Stabilization
Group (CETSA-MS thermal shift) (LYPLA2): Destabilization
Group (CETSA-MS thermal shift) (MAN2A1): Stabilization
Group (CETSA-MS thermal shift) (MAP3K20): Destabilization
Group (CETSA-MS thermal shift) (MICALL2): Destabilization
Group (CETSA-MS thermal shift) (PIP4K2B): Stabilization
Group (CETSA-MS thermal shift) (RBM34): Stabilization
Group (CETSA-MS thermal shift) (SCAF1): Stabilization
Group (CETSA-MS thermal shift) (SHCBP1): Destabilization
Group (CETSA-MS thermal shift) (SNX6): Destabilization
Group (CETSA-MS thermal shift) (STK10): Stabilization
Group (CETSA-MS thermal shift) (STK3): Destabilization
Akt pSer473 levels (Akt pSer473): decreasing
